Where two headings read alike, the source gives them in different places.
Assay: Plasma lysine response after liquid lysine drench
Assay type: in vivo, bovines
Settings: cattle (bovine), oral, 60 g; for concentration at 148 min: 148 minutes (so in the source)
Text: The following study, performed using liquid lysine supplied in a 60-gram amino acid dose in a liquid drench to two bovines, gave the following response curves in the plasma level of the lysine, which is an index of its absorption by the animals, and illustrates that the esophageal muscle reflex is active: […]

[1] = Cow 1, 60-gram dose, read-out: Cow 1, plasma lysine
[2] = Cow 2, 60-gram dose, read-out: Cow 2, plasma lysine

## NCCCC[C@H](N)C(=O)O [liquid lysine, lysine]
Cow 1, 60-gram amino acid dose, read-out: Cow 1, plasma lysine
  concentration at 0 min: 10000 ng/mL
[1]
  concentration at 80 min: 11300 ng/mL
  concentration at 148 min: 19700 ng/mL
  concentration at 160 min: 12400 ng/mL
  concentration at 240 min: 16100 ng/mL
  concentration at 360 min: 17300 ng/mL
  concentration at 420 min: 17500 ng/mL
  concentration at 540 min: 19300 ng/mL
  concentration at 600 min: 15400 ng/mL
  concentration at 24 h: 14400 ng/mL
Cow 2, 60-gram amino acid dose, read-out: Cow 2, plasma lysine
  concentration at 0 min: 10700 ng/mL
[2]
  concentration at 80 min: 10800 ng/mL
  concentration at 148 min: 20000 ng/mL
  concentration at 160 min: 13600 ng/mL
  concentration at 240 min: 22400 ng/mL
  concentration at 360 min: 24200 ng/mL
  concentration at 420 min: 24200 ng/mL
  concentration at 540 min: 17000 ng/mL
  concentration at 600 min: 14200 ng/mL
  concentration at 24 h: 12000 ng/mL

Reference: patent publication US7470446B2, “Method and system for supplying amino acids or chemical derivatives in liquid form to ruminant livestock” (Archer-Daniels-Midland Company, priority 2000, dated 2008)
